Experimental data reported in patent US20220062300A1 (priority 2019, published 2022).

Legend:
[1] = test system: formalin-induced pain behavior; experiment: Formalin test (1% formalin, hind paw shakes) with isobologram analysis; format: in vivo; details: IM, rat; for dose giving maximal antinociception effect: both phases of the formalin test; for dose reaching a significant difference in % antinociception: phase 2 of the formalin test; for ED30 (dose delivering 30% of the maximal effect): single drug, 60 min before formalin, % antinociception
Description: Male Wistar rats aged 7-8 weeks weighting 175-199 g were used in the experiments. Rats had free access to food and water before the experiments. All experimental procedures complied with the Guidelines on Ethical Standards for investigations of Experimental Pain in Animals (IASP, 1983). Each rat was used only once and was sacrificed in a CO2-saturated glass bell. The formalin model is used mainly with rodents. The test consists in the subcutaneous administration of formalin (formaldehyde in concentrations ranging from 1 to 5%), in a 20-25 μL volume for mice 30-100 μL for rats. The injection is usually administered in the dorsal surface of the right hind paw, and animals are sacrificed once the test is finished. The formalin test describes several behaviors, such as biting, licking and shaking the injected hind paw. Hind paw shaking is the most used parameter for quantifying the degree of pain. The formalin test in rodents is biphasic. […] The second phase (tonic or inflammatory) onsets 15-20 minutes after the injection and lasts 20-40 minutes. The 1%-formalin injection induced the typical shaking behavior, characterized by a brisk withdrawal or bending of the injected hind paw. The temporal course was assessed in this figure after the 1%-formalin injection, and the biphasic (phase 1 and 2) behavior characterizing this model was observed. An isobologram analysis was employed to assess aceclofenac and betamethasone interactions. […] When connecting the dots an additivity line is obtained, useful to establish the type of interaction of both compounds under study. Dose-response curves (DRC) are constructed to obtain the ED30's of each active principle. At least 4 doses of each active principle are administered by IM injection to at least 6 animals. […] Before the test, the drugs were diluted and mixed for intramuscular administration. […] This dose was statistically compared to the dose that theoretically is the simple addition of effects, and which can be obtained with the following formula: […] Where R is the potency ratio of drugs 1 and 2 administered alone; P1 is the proportion of drug 1 in the mixture; P2 is the proportion of drug 2 in the mixture. […] The interaction type is determined by the graph region where the experimental value is located in relation to the theoretical value. If the value lies below the additivity line and is statistically different from the theoretical value, then the interaction is synergic (an effect greater than the sum of effects of each drug); if the value lies near the additivity line and is not statistically different from the theoretical value, then the interaction is only additive (an effect equal to the sum of effects of each drug). If the value lies […] and is statistically different from the theoretical value, then the interaction is subadditive or antagonistic. A software calculates the interaction index (I.I.) of two drugs, obtained with the following formula: I.I.=Experimental ED30/theoretical ED30 If the index is less than 1.0, then the interaction is synergic; if it is equal to 1.0, the interaction is additive, and if it is greater than 1.0, the interaction is antagonistic. For twelve hours before the experimental preclinical phase, rats fasted but had free access to water. […] The results are expressed as the average±standard error (SE) of at least 6 rats per group. The number of hind paw shakes/minute was graphed vs. time. The area under the curve (AUC) of temporal courses is a global expression of the effect intensity and duration, and was calculated with the trapezoid method. The antinoception percentage (%) was calculated with the following formula: % Antinociception=((Vehicle-Compound)/Vehicle)×100. The AUC's and % antinociception were evaluated by means of an analysis of variance (ANOVA) and a Tukey's test. Results with P<0.05 were considered statistically significant.

[2] = cited from earlier work

| Compound | dose giving maximal antinociception effect [1] [mg/kg] | dose reaching a significant difference in % antinociception [1] [mg/kg] | number of shakes in phase 2 of the formalin test, expressed as % antinociception [1] | ED30 (dose delivering 30% of the maximal effect) [1] [mg/kg] | ED30 (dose delivering 30% of the maximal effect) ([1]; listed as aceclofenac) [mg/kg] | solubility in water [2] | ED30 (dose delivering 30% of the maximal effect) ([1]; listed as betamethasone) [mg/kg] |
| --- | --- | --- | --- | --- | --- | --- | --- |
| O=C(O)COC(=O)Cc1ccccc1Nc1c(Cl)cccc1Cl [Aceclofenac, [(2-{2,6-dichlorophenyl)amino}phenylacetooxyacetic acid]] | 31.6 | 17.7 | decreased in a dose-dependent way | 1.8662 | 13.472 | – | – |
| C[C@H]1C[C@H]2[C@@H]3CCC4=CC(=O)C=C[C@]4(C)[C@@]3(F)[C@@H](O)C[C@]2(C)[C@@]1(O)C(=O)CO [Betamethasone, (11β,16β)-9-Fluoro-11,17,21-trihydroxy-16-methylpregna-1,4-diene-3,20-dione] | 31.6 | 17.7 | decreased in a dose-dependent way | 13.4722 | – | insoluble in water | 13.472 |
